Measurements from paper PMC4310727 (Journal of enzyme inhibition and medicinal chemistry, 2012).

Target: T1, Glutaredoxin-1 (GRX-1) (Homo sapiens, UniProt P35754)
T1 sequence (P35754 2-106): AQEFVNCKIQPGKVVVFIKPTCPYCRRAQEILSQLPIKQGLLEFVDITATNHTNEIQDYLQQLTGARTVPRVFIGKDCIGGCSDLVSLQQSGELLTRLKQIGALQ
Test: time-dependent inactivation kinetics
Assay type: biochemical
Conditions: read-out: Ki

SMILES: CC(=O)N[C@@H](CSC(=S)Nc1ccc(NC(=S)SC[C@H](NC(C)=O)C(=O)O)cc1)C(=O)O [2-AAPA, 2-acetylamino-3-[4-(2-acetylamino-2-carboxyethyl-sulfanylthiocarbonylamino)phenylthiocarbamoylsulfanyl]propionic acid]
- KI (inactivation): 91.3 µM
